Each structure is given as a SMILES string.

The test system of assay [1] is streptozotocin-induced rat model. As to the kind of experiment: Test using streptozotocin-induced rat model (nociceptive threshold, von Frey). In kind it is in vivo. The protocol: Biological Experiment Example 2: Test Using Streptozotocin-Induced Rat Model
In order to evaluate the therapeutic effect of each of the compounds of the present invention on diabetic peripheral neuropathy, an in vivo test using a streptozotocin model was carried out.
A model was produced by intravenously administering streptozotocin (abbreviated as “STZ”, hereinafter) one time at a dose amount of 55 mg/kg to a rat.
(2) Measurement of Nociceptive Threshold
The rat was placed in a clear acryl measurement cage once or more times for 10 minutes or longer until the administration of STZ started. In this manner, the rat was acclimated to the measurement environment. Eight von Frey filaments respectively having weights of 0.4, 0.6, 1, 2, 4, 6, 8 and 15 g were applied vertically to a hindpaw of the rat from under a metallic mesh floor. When a quick escape or flinching reaction was observed, it was determined that a positive reaction occurred (i.e., “response was observed”). Each of the compounds of the present invention was administered orally once per day in a period from day 14 to day 28 after the administration of STZ, wherein the dose amount of each of the compounds was 0.03, 0.3 or 3 mg/kg. A nociceptive threshold was measured 2 hours after the administration of each of the compounds of the present invention at the timings of before the administration of STZ, 14 days after the administration of STZ (i.e., the day of the start of the administration of each of the compounds of the present invention), 21 days after the administration of STZ (i.e., 7 days after the start of the administration of the compound), 28 days after the administration of STZ (i.e., 14 days after the start of the administration of the compound), and 35 days after the administration of STZ (i.e., 7 days after the withdrawal of the administration of the compound).
The nociceptive threshold was measured by the up-down method in accordance with the method of Chaplan et. al. (J Neurosci Methods. 1994; 53:55-63). The rate of improvement in the nociceptive threshold was calculated in accordance with the following formula. Nociceptive threshold improve rate (%)=(nociceptive threshold on each of the number of days elapsed after administration of STZ−B)/(A−B)×100 [Math 2] • A: Nociceptive threshold before administration of STZ • B: Nociceptive threshold on 14 days elapsed after administration of STZ (Results)
The results of the nociceptive thresholds and the nociceptive threshold improve rates obtained when each of the compounds of the present invention was administered at a dose amount of 0.3 mg/kg are shown in the FIGURE and Table 2, respectively. With respect to all of the compounds, a potent pain relief effect against peripheral neuropathy was observed. With respect to the compound of Example 11, for example, the improvement in the nociceptive threshold was observed from 7 days after the start of the administration of the compound, and this effect lasted even 7 days after the withdrawal of the administration.

Assay [2] concerns rat Schwann cells. As to the kind of experiment: In vitro test using Schwann cells (Schwann cell differentiation promotion, MAG immunostaining). In kind it is cell-based. To be noted: Rattus norvegicus, 72 h, 3 days, MAG-positive area/cell nuclei. The protocol: Biological Experiment Example 1: In Vitro Test Using Schwann Cells
• (1) Preparation of rat Schwann cells
A dorsal root ganglion (abbreviated as “DRG”, hereinafter) was excised from a newborn rat aged 0 to 2 days in a clean bench and was collected in DMEM. After the collection, the tube was centrifuged at 400 g, at room temperature for 3 minutes, then a supernatant was discarded, and a 0.25% collagenase solution was added. There resultant solution was incubated at 37° C. for 30 minutes to disperse and separate the excised DRG, and was then centrifuged at room temperature at 400 g for 3 minutes, then a supernatant was discarded, and then 0.25% Trypsin/EDTA and DNaseI were added. After the incubation at 37° C. for 30 minutes, trypsin was inactivated with DMEM supplemented with 10% FBS (10% FBS-DMEM), and centrifugation was carried out at room temperature at 400 g for 3 minutes. A supernatant was discarded, then 10% FBS-DMEM was added to the residue to prepare a cell suspension, and then the cell suspension was allowed to pass through a filter (diameter: 70 μm). The number of cells in the cell suspension which passed through the filter was counted to prepare a solution having a concentration of 2.0×10^5 cells/mL, and the suspension was seeded in a poly-D-lysine-coated 96-well black-clear plate in an amount of 100 μL/well and was then statically cultured in a CO2 incubator under the conditions including 5% of CO2, 95% of air and 37° C.
The culture medium in the cell culture plate was removed by suction using an aspirator, and then DMEM supplemented with 1% dialyzed FBS and 100 μmol/L dibutyryl cyclic AMP was added. Subsequently, a solution of a compound of the present invention dissolved in DMSO was added, and the resultant solution was statically cultured in a C02 incubator under the conditions including 5% of C02, 95% of air and a temperature of 37° C. The final concentration of the compound of the present invention in each well in the cell culture plate was adjusted to 0.1, 0.3, 1 or 3 μmol/L.
Three days after the treatment with the compound, formaldehyde was added to each well in the cell culture plate, and the cell culture plate was allowed to stand at room temperature for 30 minutes or longer. A supernatant was discarded, and then a 0.3% tritonX-100 solution was added to each well, and then the cell culture plate was allowed to stand at room temperature for 20 minutes or longer. A supernatant was discarded, then a 5-μg/mL anti-myeline-associated glycoprotein antibody (anti-MAG antibody) solution was added to each well, and then the cell culture plate was allowed to stand at room temperature for 60 minutes or longer or at 4° C. (acceptable range: 1 to 9° C.) overnight. Each well was washed with a 0.1% tritonX-100 solution three times, then a 10-μg/mL Alexa fluor 488 anti-mouse IgG solution was added to each well, and then the cell culture plate was allowed to stand at room temperature for 60 or longer or at 4° C. overnight. Each well was washed with a 0.1% tritonX-100 solution four times, and then a 1-μg/mL Hoechst33342 solution was added to each well to stain nuclei.
The Mag-positive area and the number of cell nuclei in a fluorescent image were calculated. With respect to each of the MAG-positive area and the number of cell nuclei, the sum total of values obtained in 5 viewing fields/well was determined. The values were employed as a value for the MAG-positive area and a value for the number of cell nuclei, respectively, in each well. Subsequently, a value determined by dividing the value for the MAG-positive area in each well by the value for the number of cell nuclei in the well (i.e., MAG/cell nuclei numerical value) was calculated. The Schwann cell differentiation promotion rate was determined for each of the vehicles in accordance with the following formula. […]

Turning to `O=C(O)CCc1ccccc1OCCC/C=C/c1cccc(NS(=O)(=O)c2ccccc2)c1` [Example 84, 3-[2-[(E)-5-[3-(Benzenesulfonamido)phenyl]pent-4-enoxy]phenyl]propanoic acid], in assay [1] (0.3 mg/kg oral once per day day 14 to 28, 35 days after STZ), the “Nociceptive threshold improve rate (%) 7 days after withdrawal of administration” value came to 58.8 ± 12.51%. Further, the “Nociceptive threshold improve rate (%) After initial single administration” value in assay [1] (0.3 mg/kg oral once per day, 14 days after STZ, 2 hours after administration) is given as 5.7 ± 2.48%. The “Nociceptive threshold improve rate (%) 7 days after start of administration” value in assay [1] (0.3 mg/kg oral once per day, 21 days after STZ) is listed as 35.0 ± 16.24%. The “Nociceptive threshold improve rate (%) 14 days after start of administration” value in assay [1] (0.3 mg/kg oral once per day, 28 days after STZ) came to 49.9 ± 11.50%. For the same molecule, the activity at 0.3 µM in assay [2] (compound 0.3 μmol/L, read-out: Schwann cell differentiation promotion rate (% of vehicle) 0.3 μmol/L) turned out to be 162%. In addition, the activity at 3 µM in assay [2] (compound 3 μmol/L, read-out: Schwann cell differentiation promotion rate (% of vehicle) 3 μmol/L) is 445%.

Source of the values: patent US12258308B2, “Benzene derivative” (ONO PHARMACEUTICAL CO., LTD., priority 2018, dated 2025).
